Assay: Cross-study analysis of trough EPA concentrations in plasma and RBCs (Phase 1 PK, MARINE, ANCHOR)
Type: in vivo, human
Experimental: The objective of this Example is to examine the effects of high-purity ethyl eicosapentaenoate (“IPE”) on EPA concentrations in plasma and RBCs in response to dose and the relationship to triglyceride (“TG”) lowering across 3 clinical studies.
MARINE and ANCHOR were 12-week, phase 3, double-blind studies that randomized patients to IPE 4 g/day, 2 g/day, or placebo. MARINE randomized 229 patients with TG≥500 and ≤2000 mg/dL while ANCHOR randomized 702 high-risk patients with TG≥200 and ≤500 mg/dL despite LDL-C control while on statin therapy. IPE 4 g/day and 2 g/day were also investigated in 48 healthy subjects for 4 weeks in a phase 1 pharmacokinetic (“PK”) study. […]
In the MARINE and ANCHOR studies, the trough EPA concentrations were measured after 12 weeks of dosing with placebo, 2 g/day or 4 g/day IPE
In the Phase 1 PK study, the trough EPA concentrations were measured after 28 days of dosing with 2 or 4 g/day IPE (there was no placebo group; a value of zero is used in plots as a point of reference)
EPA concentrations were measured with a validated LC-MS/MS method in plasma and in RBCs in all 3 studies […]
Quantitation utilized linolenic acid as an internal standard and EPA as the standard for the calibration curve; for total plasma EPA and total RBC EPA, the lower limits of quantitation were 10 μg/mL and 5 μg/mL, respectively

## CC/C=C\C/C=C\C/C=C\C/C=C\C/C=C\CCCC(=O)OCC [IPE, all-cis eicosa-5,8,11,14,17-pentaenoic acid ethyl ester]
2 and 4 g/day groups, all 3 studies
  dose dependence of plasma and RBC EPA levels: linear with dose
MARINE and ANCHOR
  effect of demographic factors, baseline TG levels and concomitant medications on EPA concentrations in plasma and RBCs: did not affect the increase in EPA concentrations
